Measured values: patent publication US4963553A, “4-[(substituted) alkylcarbonyl]-4,5-dihydro- and -4,5,6,7-tetrahydro-7-[(substituted)phenyl]pyrazolo[1,5-a]pyrimidines” (American Cyanamid Co., priority 1988, dated 1990)
Counter-ions that a name gives are not always drawn. Each block holds one molecule with its values, some of them ahead of it.

Experiments:
[1] = target: T1, human platelet membranes (3H-imipramine receptor) (Homo sapiens, UniProt P31645); test: 3H-imipramine binding to human platelet membranes
T1 construct: Fresh human platelet concentrates (less than 48 hours old) were obtained from the New York Blood Center; tissue New York Blood Center; host or cells: human blood platelets, membranes
Method: The activity of the compounds of the invention as antidepressant agents was further verified# in the following test which measures the ability of a test compound to inhibit 3H-imipramine binding to human platelet membranes.
Platelet membranes were obtained using the procedure described by Wennogle, L. et al., Pharmac. Biochem. Behav., 15. 975 (1981). Fresh human platelet concentrates (less than 48 hours old) were obtained from the New York Blood Center. These concentrates were prepared in a citrate-dextrose anticoagulant using standard techniques. Platelets were washed twice by centrifugation (2500×G, 10 minutes) in 50 volumes of an antiprotease buffer containing 0.005M Tris potassium chloride, 0.12M sodium chloride, 0.05M Tris pH 7.5, 0.025 Units/ml aprotinin, 0.05 μg/m pepstatin, 2×10^-5 bacitracin, 3 mM ethylenediaminetetraacetic acid and 1.0 mM ethyleneglycol-bis (β-aminoethylether)N,N'-tetra-acetic acid. […] All procedures were conducted at 0° C. using plastic laboratory-ware throughout the platelet membrane preparation. Platelets were resuspended in 20 volumes of buffer and sonicated 3 times using 10 second bursts of a Branson sonifier (cell disrupter 350) at setting 6 (standard 3/4 inch horn), keeping the sample on ice throughout the procedure. Platelet membranes were then washed twice at 18,000×G for 20 minutes with 50 volumes of the antiprotease buffer and resuspended to 3.0 mg. protein/ml using the Bradford protein analysis with bovine gamma globulin as standard. Membranes were used immediately or stored frozen in liquid nitrogen.
The displacement of 3H-imipramine binding to human platelet membranes was performed essentially as described by Paul, S. M., et al., Life Sci., 953 (1980) with the following modifications. Membranes (0.3 mg protein) were suspended in antiprotease buffer with both […] 3H-imipramine (New England Nuclear) and displacing drug or buffer in a total volume of 250 #1 in glass test tubes. Samples were incubated for 90 minutes at 0° C., then diluted to 5 ml in 0.12M sodium chloride, 0.005M potassium chloride, 0.05M Tris pH 7.5 (wash buffer) and immediately filtered through GF/B Whatman Filters and washed twice with 5 ml of wash buffer. Filters were counted in a liquid scintillation counter after addition of Beckman HP Scintillant.
Non-specific binding of 3H-imipramine was defined as that fraction (generally 35%) of radioactivity that was not displaced by 10 μM desmethylimipramine. Specific binding was determined by subtraction of this non-specific level from values for total 3H-imipramine binding which were measured by incubating 3H-imipramine in the absence of displacing drug. Compounds were tested in duplicate test tubes at a concentration of 10 μM. Compounds which inhibited binding by more than 50% were considered to be active.

[2] = tested on: mice (anoxic induced amnesia); test: Passive Avoidance Anoxic Induced Amnesia Test; format: in vivo, mouse (Swiss-Webster, middle-aged); details: intraperitoneal, vs saline control
Text: A useful in vivo test associated with decreased neural function in mammals is the Passive Avoidance Anoxic Induced Amnesia Test. This test is used to determine the attenuation of anoxic induced amnesia in mice treated with drug, as compared to saline treated control animals with no drug. A shock-motivated, single trial, step-through passive avoidance procedure is used. Groups of 25 Swiss-Webster, middle-aged mice (9 months of age) are placed singly in the front chamber of a 2-chamber box and are allowed to voluntarily cross into the rear chamber. As soon as the mouse enters the rear chamber, a door automatically traps the animal and a mild electric shock (0.4 mA for 4 seconds) is delivered to its feet. Following the foot shock, the mice are initially placed in an anoxic environment (0% oxygen) for 12 seconds, which quickly induces unconsciousness. […] All testing is performed 24 hours later, and in all cases the mice appear fully recovered from the previous anoxic/hypoxic treatment. […] Control animals are injected intraperitoneally only with saline at 0.01 ml/g of body weight. The latent period prior to entering the rear chamber is recorded for both training and testing sessions. The greater the memory of being shocked, the greater the reluctance to enter into the rear chamber and the higher will be the latent period prior to re-entry. […]

[3] = tested on: mice (hypoxic environment); test: Hypoxic survival test; format: in vivo, mouse (Royal Hart); details: Mus musculus, ip, 5 min, intraperitoneal, 10% oxygen, 5 minutes, read-out: % Survivors
How it was run: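 Groups of 20 Royal Hart mice (6 weeks old) dosed i.p. with compound in saline at 1–200 mg/kg, 30 minutes before exposure to 10% oxygen/90% carbon dioxide; survival scored after 5 minutes. Saline and physostigmine (0.125 mg/kg i.p.) groups run in parallel.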

[4] = tested on: Brain-Specific Receptors of Rats (3H-benzodiazepine binding); test: Inhibition of the binding of 3H-benzodiazepine to brain-specific receptors of rats; set-up: species or system rat (Wistar strain, whole cortex); details: rat cortex P2 fraction, 3H-diazepam 1.5 nM or 3H-flunitrazepam 1.0 nM
Text: Another test utilized for the determination of anxiolytic activity is the measurement of the ability of a test compound to inhibit the binding of tritiated benzodiazepines to brain-specific receptors of mammals. A modification of the method described by R. F. Squires, et al., Nature, 266 (21), 732 (Apr., 1977) and H. Mohler, et al., Science, 198, 849 (1977) was employed. […] The test compounds were solubilized in dimethylformamide, acetic acid, ethanol or hydrochloric acid. […] (1) resuspended in twice the original volume in hypotonic 50 mM Tris.HCl (pH 7.4), or (2) resuspended in one-half the original volume in hypotonic 10 mM Tris.HCl (pH 7.4) and frozen (-20° C.) until time. of use. Frozen P2 preparations were thawed and resuspended in four times the original homogenizing volume at time of assay. […] Incubation for 30 minutes proceeded in ice and was terminated by filtration, under vacuum, through glass fiber filters. The filters were washed twice with 5 ml of ice-cold 50 mM Tris.HCl (pH 7.4) and placed in scintillation vials. After drying at 50°-60° C. for 30 minutes, 10 ml of diluent was added and the radioactivity determined in a scintillation counter. Inhibition of binding was calculated by the difference between total binding and binding in the presence of test compound, divided by the total binding, X 100.

[5] = tested on: Spontaneously Hypertensive Rats; test: Hypotensive activity: mean arterial blood pressure in spontaneously hypertensive rats; format: in vivo, rat (Okamoto strain, male); details: SHR, gavage, 100 mg/kg or less, two doses 24 h apart, measured at 28 hours; average MABP of rats used 160±1.5 mm
Method: The novel compounds of the invention are active hypotensive agents at nontoxic doses when administered to mammals. These compounds were tested for hypotensive activity by the method of P. S. Chan and D. W. Poorvin, Clinical and Experimental Hypertension, (6), 817-830 (1979). Male, 16 week old, spontaneously hypertensive rats of the Okamoto strain (Taconic Farms, Germantown, N.Y.) having an average means arterial blood pressure of 160±1.5 mm of mercury are used in the test. A rat is dosed by gavage with a test compound, suspended in 2% pre-boiled starch at a concentration of 50 mg/ml, at a dose of 100 mg/kg of body weight or less, with 0.9% sodium chloride loading at a dose of 25 ml/kg of body weight. A second identical dose of the test compound, without sodium chloride loading is given 24 hours later. At 28 hours after the initial dose the mean arterial blood pressure is measured by the method of Chan and Poorvin vide supra.

T1 sequence (P31645 whole entry): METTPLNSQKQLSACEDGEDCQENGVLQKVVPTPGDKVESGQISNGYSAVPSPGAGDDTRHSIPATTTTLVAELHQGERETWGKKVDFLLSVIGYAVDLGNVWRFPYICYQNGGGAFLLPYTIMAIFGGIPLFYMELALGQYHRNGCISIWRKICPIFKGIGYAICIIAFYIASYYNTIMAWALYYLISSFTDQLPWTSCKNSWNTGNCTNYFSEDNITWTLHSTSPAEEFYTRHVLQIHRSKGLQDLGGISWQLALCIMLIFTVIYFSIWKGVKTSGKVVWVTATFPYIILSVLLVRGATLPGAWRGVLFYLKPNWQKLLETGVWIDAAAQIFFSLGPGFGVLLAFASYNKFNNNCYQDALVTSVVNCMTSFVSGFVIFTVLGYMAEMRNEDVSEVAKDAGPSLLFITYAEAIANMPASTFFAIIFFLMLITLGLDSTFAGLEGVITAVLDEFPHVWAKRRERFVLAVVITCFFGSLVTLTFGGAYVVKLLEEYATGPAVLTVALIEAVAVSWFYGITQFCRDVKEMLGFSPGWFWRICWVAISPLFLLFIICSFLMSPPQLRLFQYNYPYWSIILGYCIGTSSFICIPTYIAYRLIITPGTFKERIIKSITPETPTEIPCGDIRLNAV

Structure (SMILES): N#Cc1cnn2c1N(C(=O)CCN1CCN(Cc3ccc(Cl)cc3)CC1)CC=C2c1cccc(C(F)(F)F)c1 [Example 85, 4-[3-[(4-Chlorophenyl)methyl]-1-piperazinyl]-1-oxopropyl]dihydro-7-[3-(trifluoromethyl)phenyl]pyrazolo[1,5-a]pyrimidine-3-carbonitrile, dihydrochloride]
inhibition at 10 µM [1]: 85%

Structure (SMILES): N#Cc1cnn2c1N(C(=O)CN1CCN(Cc3cnn(-c4ccccc4)n3)CC1)CC=C2c1cccc(C(F)(F)F)c1 [Example 146]
% Improvement ([2]; 100 mg/kg): 92% | responders at 100 mg/kg [3]: 52.5%

Structure (SMILES): CC(c1ccccc1)N1CCN(CC(=O)N2CC=C(c3cccc(C(F)(F)F)c3)n3ncc(C#N)c32)CC1 (stereo not drawn) [Example 141]
% Improvement ([2]; 25 mg/kg): 39% | responders at 25 mg/kg ([3]; 25 mg/kg): 4%

Structure (SMILES): N#Cc1cnn2c1N(C(=O)CN1CCN(CC#CCN3CCCC3=O)CC1)CC=C2c1cccc(C(F)(F)F)c1 [Example 109, 4,5-Dihydro-4-[[4-[4-(2-oxo-1-pyrrolidinyl)-2-butynyl]-1-piperazinyl]acetyl]-7-[3-(trifluoromethyl)phenyl]pyrazolo[1.5-a]pyrimidine-3-carbonitrile]
% Improvement ([2]; 1 mg/kg): 63% | responders at 100 mg/kg [3]: 68%

Structure (SMILES): N#Cc1cnn2c1N(C(=O)CN1CCN(Cc3ccccc3)CC1)CC=C2c1ccccc1 [Example 147, 4,5-Dihydro-7-phenyl-4-[[4-(phenylmethyl)-1-piperazinyl]acetyl]pyrazolo[1,5-a]pyrimidine-3-carbonitrile]
% Improvement ([2]; 25 mg/kg): 45% | responders at 100 mg/kg [3]: 50%

Structure (SMILES): N#Cc1cnn2c1N(C(=O)CN1CCN(Cc3ccc(Cl)cc3)CC1)CC=C2c1cccc(C(F)(F)F)c1 [Example 39, 4-[[4-[(4-Chlorophenyl)methyl]-1-piperazinyl]acetyl]-7-[3-(trifluoromethyl)phenyl]pyrazolo[1,5-a]pyrimidine-3-carbonitrile]
inhibition at 10 µM [1]: 84%

Structure (SMILES): CN(C)CCCN1CCN(CC(=O)N2CC=C(c3cccc(C(F)(F)F)c3)n3ncc(C#N)c32)CC1 [Example 33, 4-[[4-[3-(Dimethylamino)propyl]-1-piperazinyl]acetyl]-4,5-dihydro-7-[3-(trifluoromethyl)phenyl]pyrazolo[1,5-a]pyrimidine-3-carbonitrile]
inhibition at 10 µM [1]: 89%

Structure (SMILES): CN(C)CCN1CCN(CC(=O)N2CC=C(c3cccc(C(F)(F)F)c3)n3ncc(C#N)c32)CC1 [Example 97, 4-[[4-[2-(Dimethylamino)ethyl]-1-piperazinyl]acetyl]4,5-dihydro-7-[3-(trifluoromethyl)phenyl]pyrazolo[1,5-a]pyrimidine-3-carbonitrile. dihydrochloride]
inhibition at 10 µM [1]: 72%

% Inhibition (3H-benzodiazepine binding) [4]: 15%
Structure (SMILES): COc1ccc(Cl)cc1NC(=O)CN1CCN(CC(=O)N2CC=C(c3cccc(C(F)(F)F)c3)n3ncc(C#N)c32)CC1 [Example 100, N-(5-Chloro-2-methoxyphenyl)-4-[2-[3-cyano-7-[3-(trifluoromethyl)phenyl]pyrazolo[1.5-a]pyrimidin-4(5H)-yl]-2-oxoethyl]-1-piperazineacetamide]
MABP/mmHg (mean arterial blood pressure) [5]: 139 mmHg

Structure (SMILES): N#Cc1cnn2c1N(C(=O)CCN1CCN(Cc3ccccc3)CC1)CC=C2c1cc(Cl)ccc1Cl [Example 71, 7-(2,5-Dichlorophenyl)-4,5-dihydro-4-[1-oxo-3-[4-(phenylmethyl)-1-piperazinyl]propyl]pyrazolo[1,5-a]pyrimidine-3-carbonitrile]
inhibition at 10 µM [1]: 79%

Structure (SMILES): N#Cc1cnn2c1N(C(=O)CCN1CCN(Cc3ccccc3)CC1)CC=C2c1cccc(C(F)(F)F)c1 [Example 27, 4,5-Dihydro-4-[1-oxo-3-[4-(phenylmethyl)-1-piperazinyl]propyl]-7-[3-(trifluoromethyl)phenyl]pyrazolo[1,5-a]pyrimidine-3-carbonitrile]
inhibition at 10 µM [1]: 80%

Structure (SMILES): N#Cc1cnn2c1N(C(=O)CN1CCN(CCCOc3ccccc3)CC1)CCC2c1cccc(C(F)(F)F)c1 (stereo not drawn) [Example 57, 4,5,6,7-Tetrahydro-4-[[4-(3-phenoxypropyl)-1-piperazinyl]acetyl]-7-[3-(trifluoromethyl)phenyl]pyrazolo[1,5-a]pyrimidine-3-carbonitrile]
inhibition at 10 µM [1]: 57% | responders at 10 mg/kg ([3]; 10 mg/kg): 15%
